This note sets out measurements from patent US9682938B2, “Pyrazolone derivatives as nitroxyl donors” (Cardioxyl Pharmaceuticals, Inc., priority 2014, dated 2017).

What all share (assay type): in vitro ADME
The nature of data set [1]: In vitro plasma stability, dog plasma. The conditions noted are these: male, pH 7.4, 5 μM, 37° C., sampling 0-360 minutes, read-out: T1/2 Dog. On the procedure:
(§1) Certain compounds from Table 1 were tested for their stability in plasma. The assay system comprised plasma from rat, dog or human (at least 3 donors, male, pooled) at pH 7.4, and (ii) an anticoagulant (sodium heparin or sodium citrate). Each test compound (5 μM) was incubated in plasma at 37° C. on a THERMOMIXER® with shaking. Three samples (n=3) were taken at each of seven sampling time points: 0, 10, 30, 60, 90, 180 and 360 minutes. The samples were immediately combined with 3 volumes (i.e., 3 times the volume of plasma) of acetonitrile containing 1% formic acid and an internal standard to terminate the reaction. AB SCIEX API 3000 LC-MS/MS analysis of the test compounds was performed without a standard curve. Plasma half-lives (T1/2) of the test compounds were determined from graphs of the percent remaining values using the peak area response ratio.

Data set [2] in a line: In vitro plasma stability, human plasma. The conditions noted are these: male, pH 7.4, 5 μM, 37° C., sampling 0-360 minutes, read-out: T1/2 Human. On the procedure:
as §1

The nature of data set [3]: In vitro plasma stability, rat plasma. The conditions noted are these: male, pH 7.4, 5 μM, 37° C., sampling 0-360 minutes, read-out: T1/2 Rat. On the procedure: as §1

Structures are written as SMILES.

In the case of `CN(C)C(=O)c1ccc(C2(NO)C(=O)N(C)N=C2C(C)(C)C)cc1` (stereo not drawn) [Compound 124, 4-[3-tert-Butyl-4-(hydroxyamino)-1-methyl-5-oxo-4,5-dihydro-1H-pyrazol-4-yl]-N,N-dimethylbenzamide], the half-life at 5 μM in data set [1] is 45 min; in data set [2], 31 min; in data set [3] it was 44 min.
On the same counts, the results for `CCOC1=NN(c2ccccc2)C(=O)C1(NO)/C(C)=N/OC` (stereo not drawn) [Compound 110, 3-Ethoxy-4-(hydroxyamino)-4-[1-(methoxyimino)ethyl]-1-phenyl-4,5-dihydro-1H-pyrazol-5-one] are 12 min, 11 min and 62 min.
For `CSc1ccc(C2=NN(C)C(=O)C2(C)NO)cc1` (stereo not drawn) [Compound 36, 4-(hydroxyamino)-2,4-dimethyl-5-(4-(methylthio)phenyl)-2,4-dihydro-3H-pyrazol-3-one], in that order: 133 min, 152 min and 300 min.
On the same counts, the results for `CCO/N=C(\C)C1(NO)C(=O)NN=C1C(C)(C)C` (stereo not drawn) [Compound 134, 3-tert-Butyl-4-[1-(ethoxyimino)ethyl]-4-(hydroxyamino)-4,5-dihydro-1H-pyrazol-5-one] are 26 min, 17 min and 20 min.
On to `CN1N=C(c2cccc(C(F)(F)F)c2)C(C)(NO)C1=O` (stereo not drawn) [Compound 22, 4-(hydroxyamino)-2,4-dimethyl-5-(3-(trifluoromethyl)phenyl)-2,4-dihydro-3H-pyrazol-3-one], for which the half-life at 5 μM in data set [1] came out at 114 min; in data set [2], 55 min; in data set [3], 44 min.
For `COc1ccc(C2=NN(C)C(=O)C2(C)NO)cc1F` (stereo not drawn) [Compound 19, 5-(3-fluoro-4-methoxyphenyl)-4-(hydroxyamino)-2,4-dimethyl-2,4-dihydro-3H-pyrazol-3-one], in that order: 95 min, 163 min and 90 min.
On the same counts, the results for `CC(C)(C)C1=NN(c2ccccc2)C(=O)C1(C)NO` (stereo not drawn) [Compound 23, 5-(tert-butyl)-4-(hydroxyamino)-4-methyl-2-phenyl-2,4-dihydro-3H-pyrazol-3-one] are 120 min, 104 min and 136 min.
On the same counts, the results for `CN1N=C(c2ccc(S(C)(=O)=NC(=O)C(F)(F)F)cc2)C(C)(NO)C1=O` (stereo not drawn) [Compound 72, 2,2,2-Trifluoro-N-({4-[4-(hydroxyamino)-1,4-dimethyl-5-oxo-4,5-dihydro-1H-pyrazol-3-yl]phenyl}(methyl)oxo-λ^6-sulfanylidene)acetamide] are 12 min, 13 min and 9 min.
For `CN1N=C(c2ccc(OC(F)(F)F)cc2)C(C)(NO)C1=O` (stereo not drawn) [Compound 59, 4-(hydroxyamino)-1,4-dimethyl-3-(4-(trifluoromethoxy)phenyl)-1-pyrazol-5(4H)-one], the half-life at 5 μM in data set [1] was determined as 150 min; in data set [2] it was 77 min; in data set [3], 80 min.
On the same counts, the results for `CC1=NN(c2ccccc2)C(=O)C1(NO)c1ccccc1` (stereo not drawn) [Compound 24, 4-(hydroxyamino)-5-methyl-2,4-diphenyl-2,4-dihydro-3H-pyrazol-3-one] are 16 min, 11 min and 10 min.
On the same counts, the results for `CN1N=C(c2ccc(S(C)(=O)=O)c(C(F)(F)F)c2)C(C)(NO)C1=O` (stereo not drawn) [Compound 97, 4-(Hydroxyamino)-3-[4-methanesulfonyl-3-(trifluoromethyl)phenyl]-1,4-dimethyl-4,5-dihydro-1H-pyrazol-5-one] are 32 min, 25 min and 23 min.
On to `CO/N=C(\C)C1(NO)C(=O)N(C)N=C1c1ccc(S(=O)(=O)N(C)C)cc1` (stereo not drawn) [Compound 121, 4-[4-(Hydroxyamino)-4-[1-(methoxyimino)ethyl]-1-methyl-5-oxo-4,5-dihydro-1H-pyrazol-3-yl]-N,N-dimethylbenzene-1-sulfonamide], for which the half-life at 5 μM in data set [1] came to 4 min; in data set [2], 2 min; in data set [3], 8 min.
On the same counts, the results for `CN1N=C(c2ccc(S(C)(=O)=O)c(S(C)(=O)=O)c2)C(C)(NO)C1=O` (stereo not drawn) [Compound 104, 3-(3,4-Dimethanesulfonylphenyl)-4-(hydroxyamino)-1,4-dimethyl-4,5-dihydro-1H-pyrazol-5-one] are 33 min, 28 min and 59 min.
On the same counts, the results for `CN1N=C(c2cc(F)c(S(C)(=O)=O)c(F)c2)C(C)(NO)C1=O` (stereo not drawn) [Compound 45, 5-(3,5-difluoro-4-(methylsulfonyl)phenyl)-4-(hydroxyamino)-2,4-dimethyl-2,4-dihydro-3H-pyrazol-3-one] are 31 min, 40 min and 25 min.
For the molecule `COc1ccc(C2=NN(C)C(=O)C2(C)NO)cc1` (stereo not drawn) [Compound 53, 4-(hydroxyamino)-3-(4-methoxyphenyl)-1,4-dimethyl-1H-pyrazol-5(4H)-one], the half-life at 5 μM amounted to 256 min in data set [1], 480 min in data set [2] and 350 min in data set [3].
For `CN1N=C(c2ccc(S(C)(=O)=O)c(N(C)C)c2)C(C)(NO)C1=O` (stereo not drawn) [Compound 87, 3-[3-(Dimethylamino)-4-methanesulfonylphenyl]-4-(hydroxyamino)-1,4-dimethyl-4,5-dihydro-1H-pyrazol-5-one], in that order: 42 min, 47 min and 63 min.
For `C[C@H](NC(=O)c1ccc(C2=NN(C)C(=O)C2(C)NO)cc1)C(=O)O` (stereo partly drawn) [Compound 94], in that order: 114 min, 103 min and 191 min.
On the same counts, the results for `CC1=NN(c2ccc(S(C)(=O)=O)cc2)C(=O)C1(C)NO` (stereo not drawn) [Compound 33, 4-(hydroxyamino)-4,5-dimethyl-2-(4-(methylsulfonyl)phenyl)-2,4-dihydro-3H-pyrazol-3-one] are 100 min, 130 min and 175 min.
In the case of `Cc1cc(C2=NN(C)C(=O)C2(C)NO)ccc1S(C)(=O)=O` (stereo not drawn) [Compound 41, 4-(hydroxyamino)-2,4-dimethyl-5-(3-methyl-4-(methylsulfonyl)phenyl)-2,4-dihydro-3H-pyrazol-3-one], the half-life at 5 μM in data set [1] was 38 min; in data set [2], 54 min; in data set [3] it was 64 min.
On the same counts, the results for `CC1=NN(C)C(=O)C1(NO)/C(C)=N/OCC(C)C` (stereo not drawn) [Compound 105, 4-(Hydroxyamino)-1,3-dimethyl-4-[1-[(2-methylpropoxy)imino]ethyl]-4,5-dihydro-1H-pyrazol-5-one] are 4 min, 6 min and 4 min.
On the same counts, the results for `CO/N=C(\C)C1(NO)C(=O)N(c2ccccc2)N=C1C(C)(C)C` (stereo not drawn) [Compound 18, 5-(tert-butyl)-4-(hydroxyamino)-4-(1-(methoxyimino)ethyl)-2-phenyl-2,4-dihydro-3H-pyrazol-3-one] are 13 min, 26 min and 17 min.
On to `COc1ccc(C2(NO)C(=O)N(C)N=C2C)cc1OC` (stereo not drawn) [Compound 73, 4-(3,4-Dimethoxyphenyl)-4-(hydroxyamino)-1,3-dimethyl-4,5-dihydro-1H-pyrazol-5-one], for which the half-life at 5 μM in data set [1] was found to be 13 min; in data set [2], 14 min; in data set [3], 18 min.
On the same counts, the results for `COCCN(C)c1cc(C2=NN(C)C(=O)C2(C)NO)ccc1S(C)(=O)=O` (stereo not drawn) [Compound 83, 4-(Hydroxyamino)-3-{4-methanesulfonyl-3-[(2-methoxyethyl)(methyl)amino]phenyl}-1,4-dimethyl-4,5-dihydro-1H-pyrazol-5-one] are 66 min, 51 min and 89 min.
Turning to `CO/N=C(\C)C1(NO)C(=O)N(c2ccccc2)N=C1OC` (stereo not drawn) [Compound 116, 4-(Hydroxyamino)-3-methoxy-4-[1-(methoxyimino)ethyl]-1-phenyl-4,5-dihydro-1H-pyrazol-5-one], the half-life at 5 μM in data set [1] was 18 min; in data set [2], 9 min; in data set [3], 48 min.
For `C/C(=N\Oc1ccccc1)C1(NO)C(=O)N(C)N=C1C(C)(C)C` (stereo not drawn) [Compound 119, 3-tert-Butyl-4-(hydroxyamino)-1-methyl-4-[1-(phenoxyimino)ethyl]-4,5-dihydro-1H-pyrazol-5-one], in that order: 118 min, 12 min and 91 min.
For `COc1ccc(C2(NO)C(=O)N(C)N=C2C)cc1` (stereo not drawn) [Compound 43, 4-(hydroxyamino)-4-(4-methoxyphenyl)-1,3-dimethyl-1H-pyrazol-5(4H)-one], in that order: 23 min, 35 min and 25 min.
